ChEMBL document CHEMBL3351378, “Phenyl acetate derivatives, fluorine-substituted on the phenyl group, as rapid recovery hypnotic agents with reflex depression” (Eur J Med Chem, 2015)
Calls of active or inactive are those of the source. The calls are words filed in the database; no cut-off is given here.

What was measured:
Rattus norvegicus [1] = assay: Induction of hypnotic activity in iv dosed Sprague-Dawley rat assessed as loss of righting reflex; assay type: functional
[2] = Toxicity in Sprague-Dawley rat assessed as motor coordination by rotarod test; assay type: organism-based; settings: in vivo
[3] = Therapeutic index, ratio of […] for Sprague-Dawley rat by rotarod test to HD50 for hypnotic activity in iv dosed Sprague-Dawley rat; assay type: organism-based; settings: in vivo, read-out: TI
[4] = molecular target: Glutamate NMDA receptor (Rattus norvegicus) (UniProt P35439+Q00959+Q00960+Q00961+Q62645+Q8VHN2+Q9R1M7); assay: Displacement of [3H]MK801 from NMDA receptor in Sprague-Dawley rat cerebral cortex membrane at 50 umol by liquid scintillation counting; assay type: tissue-based
Rattus norvegicus [5] = assay: Induction of hypnotic activity in iv dosed Sprague-Dawley rat assessed as time duration of loss of righting reflex; assay type: functional
Rattus norvegicus [6] = assay: Induction of hypnotic activity in iv dosed Sprague-Dawley rat assessed as reflex depression 10 secs following injection; assay type: functional, organism-based
Rattus norvegicus [7] = assay: Induction of hypnotic activity in iv dosed Sprague-Dawley rat assessed as reflex depression 20 secs following injection; assay type: functional, organism-based
Rattus norvegicus [8] = assay: Induction of hypnotic activity in iv dosed Sprague-Dawley rat assessed as reflex depression 120 secs following injection; assay type: functional, organism-based
Rattus norvegicus [9] = assay: Induction of hypnotic activity in Sprague-Dawley rat assessed as recovery time to walking at 5.6 mg/kg/min after 20 mins to 3 hrs; assay type: functional, organism-based
Rattus norvegicus [10] = assay: Induction of hypnotic activity in iv dosed Sprague-Dawley rat assessed as reflex depression 60 secs following injection; assay type: functional, organism-based
Rattus norvegicus [11] = assay: Induction of hypnotic activity in iv dosed Sprague-Dawley rat assessed as reflex depression 30 secs following injection; assay type: functional, organism-based
Rattus norvegicus [12] = assay: Induction of hypnotic activity in iv dosed Sprague-Dawley rat assessed as reflex depression 180 secs following injection; assay type: functional, organism-based

SMILES	HD50 (Rattus norvegicus [1])	TD50 [2]	selectivity ratio [3]	Activity [4]	Time (Rattus norvegicus [5])	Activity (Rattus norvegicus [6])	Activity (Rattus norvegicus [7])	Activity (Rattus norvegicus [8])	Activity (Rattus norvegicus [9])	Activity (Rattus norvegicus [10])	Activity (Rattus norvegicus [11])	Activity (Rattus norvegicus [12])
CCN(CC)C(=O)COc1ccc(CC(=O)OCC(F)(F)F)c(F)c1OC	22.8 mg/kg	185 mg/kg	8.1	inactive	88.7 s							
CCCOC(=O)Cc1ccc(OCC(=O)N(CC)CC)c(OCC)c1 [AZD-3043]	7.9 mg/kg	82.8 mg/kg	10.1	inactive	74.2 s	Active	Active					
CCN(CC)C(=O)COc1cc(F)c(CC(=O)OC(C)C)cc1OC	11.5 mg/kg	155 mg/kg	13.5	inactive	86.6 s							
CCCOC(=O)Cc1cc(F)c(OCC(=O)N(CC)CC)c(OCC)c1	14.8 mg/kg	175 mg/kg	11.8	inactive	76.6 s							
CCOc1c(OCC(=O)N(CC)CC)ccc(CC(=O)OC(C)C)c1F	17.9 mg/kg	165 mg/kg	9.2	inactive	102.9 s							
CCOc1cc(CC(=O)OCC(F)(F)F)c(F)cc1OCC(=O)N(CC)CC	9.8 mg/kg	113 mg/kg	11.5	inactive	186.1 s							
CCN(CC)C(=O)COc1c(F)cc(CC(=O)OC(C)C(F)(F)F)cc1OC (stereo not given)	15.4 mg/kg	148 mg/kg	9.6	inactive	84.2 s							
CCOc1c(OCC(=O)N(CC)CC)ccc(CC(=O)OCC(F)(F)F)c1F	21.1 mg/kg	162 mg/kg	7.7	inactive	83.3 s							
CCCCOC(=O)Cc1cc(OCC)c(OCC(=O)N(CC)CC)cc1F	9.7 mg/kg	109 mg/kg	11.2	inactive	158.3 s							
CCOc1cc(CC(=O)OC(C)C(F)(F)F)c(F)cc1OCC(=O)N(CC)CC (stereo not given)	11.6 mg/kg	124 mg/kg	10.7	inactive	238.3 s							
CCN(CC)C(=O)COc1c(F)cc(CC(=O)OCC(F)(F)F)cc1OC	16.9 mg/kg	165 mg/kg	9.8	inactive	71.1 s							
CCCOC(=O)Cc1ccc(OCC(=O)N(CC)CC)c(OCC)c1F	16.6 mg/kg	173 mg/kg	10.4	inactive	81.4 s							
CCCOC(=O)Cc1cc(OCC)c(OCC(=O)N(CC)CC)cc1F	5.3 mg/kg	70.5 mg/kg	13.3	inactive	215.3 s							
CCOC(=O)Cc1cc(OCC)c(OCC(=O)N(CC)CC)cc1F	5.6 mg/kg	74.5 mg/kg	14.4	56.6%	209.6 s	inactive	Active	Active	inactive	Active	Active	Active
CCOc1c(OCC(=O)N(CC)CC)ccc(CC(=O)OC(C)C(F)(F)F)c1F (stereo not given)	24.6 mg/kg	182 mg/kg	7.4	inactive	89.8 s							
CCCOC(=O)Cc1ccc(OCC(=O)N(CC)CC)c(OC)c1 [PROPANIDID]	8.5 mg/kg	80.6 mg/kg	9.6	inactive	93.3 s	Active	Active					
CCN(CC)C(=O)COc1c(F)cc(CC(=O)OC(C)C)cc1OC	14.2 mg/kg	176 mg/kg	12.4	inactive	79.5 s							
CCOc1cc(CC(=O)OC(C)CC)c(F)cc1OCC(=O)N(CC)CC (stereo not given)	8.4 mg/kg	90.7 mg/kg	10.8	inactive	145.3 s							

SMILES	HD50 (Rattus norvegicus [1])	TD50 [2]	selectivity ratio [3]	Activity [4]	Time (Rattus norvegicus [5])	Activity (Rattus norvegicus [6])	Activity (Rattus norvegicus [7])	Activity (Rattus norvegicus [8])	Activity (Rattus norvegicus [9])	Activity (Rattus norvegicus [10])	Activity (Rattus norvegicus [11])	Activity (Rattus norvegicus [12])
CCOc1cc(CC(=O)OC(C)C)c(F)cc1OCC(=O)N(CC)CC	4.8 mg/kg	60.9 mg/kg	12.7	inactive	226.2 s							
CCOc1cc(CC(=O)OC(C)C)cc(F)c1OCC(=O)N(CC)CC	19.5 mg/kg	256 mg/kg	13.1	inactive	92.7 s							
CCN(CC)C(=O)COc1cc(F)c(CC(=O)OCC(F)(F)F)cc1OC	18.4 mg/kg	171 mg/kg	9.3	inactive	75.4 s							
CCN(CC)C(=O)COc1cc(F)c(CC(=O)OC(C)C(F)(F)F)cc1OC (stereo not given)	15.6 mg/kg	151 mg/kg	9.7	inactive	88.9 s							
CCCOC(=O)Cc1ccc(OCC(=O)N(CC)CC)c(OC)c1F	19.4 mg/kg	169 mg/kg	8.7	inactive	76.6 s							
CCN(CC)C(=O)COc1ccc(CC(=O)OC(C)C)c(F)c1OC	17.9 mg/kg	141 mg/kg	7.9	inactive	91.4 s							
CCOC(=O)Cc1ccc(OCC(=O)N(CC)CC)c(OCC)c1F	19.8 mg/kg	200 mg/kg	10.1	inactive	77.7 s							
CCOC(=O)Cc1cc(F)c(OCC(=O)N(CC)CC)c(OCC)c1	18.5 mg/kg	224 mg/kg	12.1	inactive	66.5 s							
CCCOc1cc(CC(=O)OC(C)C)c(F)cc1OCC(=O)N(CC)CC	10.6 mg/kg	102 mg/kg	9.6	inactive	133.9 s							
CCOc1cc(CC(=O)OC(C)C(F)(F)F)cc(F)c1OCC(=O)N(CC)CC (stereo not given)	18.3 mg/kg	181 mg/kg	9.9	inactive	88.8 s							
CCCOC(=O)Cc1cc(F)c(OCC(=O)N(CC)CC)c(OC)c1	16.8 mg/kg	188 mg/kg	11.2	inactive	68.9 s							
CC(C)c1cccc(C(C)C)c1O [PROPOFOL]	5.3 mg/kg	30.7 mg/kg	5.9		349.3 s							
CCN(CC)C(=O)COc1ccc(CC(=O)OC(C)C(F)(F)F)c(F)c1OC (stereo not given)	21.4 mg/kg	158 mg/kg	7.4	inactive	92.6 s							
CCCOC(=O)Cc1cc(OC)c(OCC(=O)N(CC)CC)cc1F	15.8 mg/kg	199 mg/kg	12.6	inactive	79.3 s							
CCOC(=O)Cc1ccc(OCC(=O)N(CC)CC)c(OC)c1F	21.6 mg/kg	201 mg/kg	9.3	inactive	89.8 s							
CCOC(=O)Cc1cc(F)c(OCC(=O)N(CC)CC)c(OC)c1	17.2 mg/kg	239 mg/kg	13.9	inactive	72 s							
CCOc1cc(CC(=O)OCC(F)(F)F)cc(F)c1OCC(=O)N(CC)CC	14.6 mg/kg	127 mg/kg	8.7	inactive	76.6 s							
CCOC(=O)Cc1cc(OC)c(OCC(=O)N(CC)CC)cc1F	10 mg/kg	113 mg/kg	11.3	inactive	82.2 s							
